According to patent US20140314857A1, “FORMULATIONS FOR ENHANCED BIOAVAILABILITY OF ZANAMIVIR” (priority 2012, published 2014):

Test: Express IV formulation development: solubility screening in normal saline
Assay type: physicochemical
Conditions: saline or isotonic, thermodynamic from solid, NS, visual observation after vortexing
Description: The following procedure and potential dosing vehicles were evaluated, and the results are described. The target concentrations of 5 mg/mL were investigated. 1. Weigh 2-5 mg of the zanamivir into a 4 mL glass vial. 2. Add the appropriate volume of normal saline. 3. Vortex, record observations of the formulation. 4. Take an aliquot and dilute it 5-fold with NS. 5. Record observations of the formulation. 6. End of the procedure.

In the case of `CC(=O)NC1C(NC(=N)N)C=C(C(=O)O)OC1C(O)C(O)CO` (stereo not shown) [Zanamivir, 5-acetamido-4-guanidino-6-(1,2,3-trihydroxypropyl)-5,6-dihydro-4H-pyran-2-carboxylic acid], the solubility is reported as at least 5 mg/mL.
